{"source": "patent US11918621B2", "about": "“Methods and treatments using toll-like receptor agonists to mitigate hematopoietic myeloid loss, increase gastrointestinal recovery and reduce tumor growth” (priority 2017, dated 2024)", "molecules": {"B1": {"name": "Flagellin FliC: TLR5 agonist (protein, UniProt P06179 2-495, looked up)", "Flagellin": "AQVINTNSLSLLTQNNLNKSQSALGTAIERLSSGLRINSAKDDAAGQAIANRFTANIKGLTQASRNANDGISIAQTTEGALNEINNNLQRVRELAVQSANSTNSQSDLDSIQAEITQRLNEIDRVSGQTQFNGVKVLAQDNTLTIQVGANDGETIDIDLKQINSQTLGLDTLNVQQKYKVSDTAATVTGYADTTIALDNSTFKASATGLGGTDQKIDGDLKFDDTTGKYYAKVTVTGGTGKDGYYEVSVDKTNGEVTLAGGATSPLTGGLPATATEDVKNVQVANADLTEAKAALTAAGVTGTASVVKMSYTDNNGKTIDGGLAVKVGDDYYSATQNKDGSISINTTKYTADDGTSKTALNKLGGADGKTEVVSIGGKTYAASKAEGHNFKAQPDLAEAAATTTENPLQKIDAALAQVDTLRSDLGAVQNRFNSAITNLGNTVNNLTSARSRIEDSDYATEVSNMSRAQILQQAGTSVLAQANQVPQNVLSLLR"}, "B2": {"name": "G-CSF: granulocyte colony-stimulating factor, approved radiation countermeasure (protein, UniProt P09919 31-207, looked up)", "Granulocyte …": "TPLGPASSLPQSFLLKCLEQVRKIQGDGAALQEKLVSECATYKLCHPEELVLLGHSLGIPWAPLSSCPSQALQLAGCLSQLHSGLFLYQGLLQALEGISPELGPTLDTLQLDVADFATTIWQQMEELGMAPALQPTQGAMPAFASAFQRRAGGVLVASHLQSFLEVSYRVLRHLAQP"}}, "key": {"B16 melanoma tumor cells": {"tested_on": "B16 melanoma tumor cells", "assay": "B16 melanoma tumor model with cisplatin chemotherapy", "protocol": "The impact of combining FSL-1 treatment with chemotherapy as a therapeutic against cancer was also tested. In this study, B16 melanoma tumor cells (50,000) in matrigel matrix were implanted into the flank (SC) of wild type animals and were allowed to grow 10 days to palpation (˜3-5 mm in diameter). Mice were then treated with chemotherapy agent cisplatin (intravenous IV, 100 μg/mouse) with and without FSL-1 (SC, 40 μg/mouse). Changes in tumor volume (ellipsoidal volume calculation of ½ width*width*length, mm^3) were monitored along with changes in body weight and condition."}, "[1]": {"tested_on": "mice treated with FSL-1 post TBI", "assay": "Late effects of radiation: long-term survivors, MRI of tissues", "assay_type": "in vivo", "details": "survivors of more than 600 days", "source_text": "MRI was used to detect multiple tissues in these survivors, such as brain, gut, kidney or spleen. […] FSL-1 is found to accelerate hematopoietic cell recovery in bone marrow, spleen and periphery, and augments systemic levels of hematopoiesis stimulating factors (G-CSF)."}, "[2]": {"tested_on": "irradiated male C57BL/6 mice", "assay": "Radiomitigation activity of TLR2 ligands after TBI", "assay_type": "in vivo", "details": "IP injection 24 hr post TBI", "protocol": "The radiomitigation activity of TLR2 ligands was delineated (FIGS. 1C and 1D), including FSL-1, by irradiating male C57BL/6 mice and treating (IP injections) with either FSL-1, Pam2CSK4 (Pam2Cys-SKKKK, TLR2/6 ligand), or Pam3CSK4 (Pam3Cys-SKKKK, TLR1/2 ligand) at 24 hours (hr) post TBI."}, "[3]": {"tested_on": "C57BL/6 mice exposed to 9.2 Gy gamma radiation (total body irradiation)", "assay": "Survival and clinical score after lethal total body irradiation, TLR ligands given IP", "assay_type": "in vivo", "details": "9.2 Gy TBI, IP injection one day after radiation, survival over 30 days", "protocol": "To examine the role of TLR ligands as radio-mitigators, FSL-1 (TLR2/6 ligand) was first compared with other TLR ligands (FIGS. 1A and 1B). In this experiment, C57BL/6 mice were exposed to 9.2 Gy gamma radiation (total body irradiation, or TBI) using 137-Cesium irradiator and then the mice were treated with TLR ligands via intraperitoneal (IP) injections one day after radiation. The impact of CpG-ODN2395 (CpG, TLR9 agonist), Flagellin FliC (Fla, TLR5 agonist), MPLA (TLR4 agonist) or FSL-1 (Pam2[…], TLR2/6 agonist) in comparison to mice treated with physiological water (no treatment, NT) was examined. Survival was monitored over 30 days and clinical scores were recorded. […] Eight independent experiments have been completed, each showing the survival rate of FSL-1-treated mice ranged from 50% to 100% with the mean rate of 80%. The lowest one is presented herein.\nThe Clinical Score is based on changes to body condition that included body weight, body temperature, physical appearance, grooming, posture, activity/behavior, appetite and hydration. Supplementation with wet feed, subcutaneous fluids, long sipper tubes, were provided as needed."}, "irradiated mice": {"tested_on": "irradiated mice", "details": "only when injected subcutaneously daily from day 1 to 16 (16 doses); cited from earlier work"}}, "note": "“Also recorded” adds a separate entry of the source. Peptide text beside a SMILES is read from it. * marks the point of attachment. X1 = CCCCCCCCCCCCCCCC(=O)OCC(C*)OC(=O)CCCCCCCCCCCCCCC"}
{"molecule": "CCCCCCCCCCCCCCCC(=O)OCC(CSC[C@H](N)C(=O)NCC(=O)N[C@@H](CC(=O)O)C(=O)N1CCC[C@H]1C(=O)N[C@@H](CCCCN)C(=O)N[C@@H](Cc1c[nH]cn1)C(=O)N1CCC[C@H]1C(=O)N[C@@H](CCCCN)C(=O)N[C@@H](CO)C(=O)N[C@@H](Cc1ccccc1)C(=O)O)OC(=O)CCCCCCCCCCCCCCC", "note": "(stereo partly shown) [FSL-1] (H-C(X1)GDPKHPKSF-OH)", "values": [{"measurement": "body weight", "setting": "B16 melanoma tumor cells; mouse, in vivo", "result": "maintained weight for nearly 2 weeks following treatment"}, {"measurement": "MRI of tissues (brain, gut, kidney, spleen)", "setting": "[1]", "result": "no physiologic changes"}, {"measurement": "symptoms of disease in long-term survivors", "setting": "[1]", "result": "no symptoms of any diseases; also recorded: without any symptoms of leukemia or other diseases"}]}
{"molecule": "N.N.[Cl][Pt][Cl]", "note": "[cisplatin]", "values": [{"measurement": "animals reaching the 2 cm tumor diameter endpoint", "setting": "B16 melanoma tumor cells; by day 19", "result": "two"}, {"measurement": "body condition", "setting": "B16 melanoma tumor cells; mouse, in vivo", "result": "reduced body condition"}, {"measurement": "body weight", "setting": "B16 melanoma tumor cells; mouse, in vivo", "result": "dramatically lost weight after day 19"}]}
{"molecule": "Pam3Cys-SKKKK [Pam3CSK4]", "values": [{"measurement": "survival", "setting": "[2]", "result": "promoted survival"}]}
{"molecule": "Pam2Cys-SKKKK [Pam2CSK4]", "values": [{"measurement": "survival", "setting": "[2]", "result": "promoted survival"}]}
{"molecule": "B1", "values": [{"measurement": "protection from radiation-induced death", "setting": "[3]", "result": "did not show any protection"}]}
{"molecule": "B2", "values": [{"measurement": "survival of irradiated mice", "setting": "irradiated mice", "result": "increase the survival"}]}
